Reference: patent US9827210B2, “Treatment or prophylaxis of a neurological or neuropsychiatric disorders via ocular administration” (Phovitreal Pty Ltd, priority 2007, dated 2017)

What was measured:
[1] = tested on: rats with experimental Parkinson's disease; assay: 6-hydroxy dopamine model of Parkinson's disease in rats, intraocular or intravitreal injection; assay type: in vivo; settings: bilateral 6-hydroxy dopamine lesion, 2 μl of 10 mMol solution into vitreous humor of both eyes on days 2, 3 and 4 after surgery, versus PD+IOVeh (70% DMSO)
Text: At appropriate concentrations, the neurotoxin 6-hydroxy dopamine produces specific and permanent depletion of dopamine in the brain and more specifically of the nigro-striatal dopamine system (Ungerstedt, U. et al, Adv. Neurol., 5, 421, 1974; Willis, G. L. & Armstrong, S. A., Brain Res. Rev., 27, 177, 1998). Intracranial injections of 6-hydroxy dopamine were used to produce a model of Parkinson's disease (and schizophrenia). Bilateral lesions produced a vegetative, akinetic syndrome in which there is a lack of voluntary movement, hunched posture and body weight loss accompanied by a loss in the ability to eat and drink.
b) After preparatory surgery that permitted access to the brain, rats were induced with bilateral experimental Parkinson's disease by injection of the neurotoxin 6-hydroxy dopamine into the nigro-striatal dopamine system. On days 2, 3 and 4 after surgery a single 2 μl intraocular or intravitreal injection was made into the vitreous humor of both eyes. The solution injected was either a 10 mMol solution of ML-23 (PD+IODrug) or a 10 mMol solution of vehicle (PD+IOVeh). The vehicle used was 70% DMSO. For comparison, a control group was not made Parkinsonian but received intraocular or intravitreal injection of vehicle in the same volume as the experimental groups (C+IOVeh). […]

[2] = tested on: Sprague-Dawley rats pre-treated with dl-amphetamine; assay: dl-amphetamine-induced psychosis in rats, intravitreal injection, motor tests; assay type: in vivo; settings: 2 μl of 12.5 μg/μl into vitreous humor after 5 days of 1 mg/kg dl-amphetamine i.p.; measured three hours after injection; versus 80% DMSO vehicle; FIG. 4
Experimental: Lesions to the brain dopamine systems in mammalian brain serve as models for various neuropsychiatric disorders. When drugs such as amphetamines are administered to animals for a certain period of time psychotic symptoms develop such as increased activity, agitation and decreased latency time to perform various motor tasks. In other words, opposite to those symptoms seen in Parkinson's disease, the time to perform various motor tasks decreased: they perform them quicker.
At appropriate concentrations, the addictive drug, dl-amphetamine (1 mg/kg) was injected intraperitoneally to produce psychosis and addiction in Sprague-Dawley rats. After 5 days of such treatment each animal was tested for their level of activity in a computerized activity chamber and on three motor tests. On the day after completion of the injections half the animals received a 2 μl injection of haloperidol (12.5 μg/μl) into the vitreous humor, just in front of the retina. The other half of the animals received a 2 μl injection of vehicle (80% DMSO solution) into the vitreous humor. The effects of such injections on various parameters of movement, such as the latency to ambulate and the latency to retract a front paw, were measured three hours after animals received their intravitreal injection. […]

Row | Structure (SMILES) | horizontal movement ([1]; FIG. 1) | ability to retract/move the front limb ([1]; FIG. 2) | latency to ambulate from a prescribed area [2] | latency to retract an elevated limb [2]
1 | COc1ccc2[nH]cc(CCNc3ccc([N+](=O)[O-])cc3[N+](=O)[O-])c2c1 [ML-23] | better horizontal movement | better performance on the ability to move the front limb | – | –
2 | O=C(CCCN1CCC(O)(c2ccc(Cl)cc2)CC1)c1ccc(F)cc1 [haloperidol] | – | – | increased | increased
